Assay results taken from patent publication US20100184094A1, “USE OF MDCK CELLS IN THE EVALUATION OF CHOLESTEROL MODULATORS” (priority 2007, published 2010).

Columns and labels:
dog NPC1L1 = dog NPC1L1 (Canis lupus familiaris, UniProt A0A8I3RZG1); experiment: [3H]cholesterol flux into dNPC1L1/MDCKII-Flp cells; format: cell-based
Experimental: (§1) Flux assays were performed essentially as described by Yu et al., 2006 J Biol. Chem. 281:6616-6624. Briefly, cell growth medium was completely aspirated and replaced with 200 μl of 5% LPDS containing the appropriate concentration of compound and incubated at 37° C./3 h in a 5% CO2 incubator. Media was subsequently aspirated from cells and cells were incubated in 200 μl of 0-5.5% βmCD dissolved and filtered through a […] filter at 37° C./45 minutes in a 5% CO2 incubator. Media was dumped from cells that were then washed twice with 125 μl of 5% LPDS before media was aspirated and [3H]cholesterol complexed to BSA in 5% LPDS was added; see Yu et al., 2006 J. Biol. Chem. 281:6616-6624. After 45 minute incubation, cells were washed twice with DMEM, thoroughly aspirated and then 1% SDS was added prior to extraction for scintillation counting.
Further evidence for the role of NPC1L1 expression levels on EZE-sensitive [^3H]cholesterol influx was obtained by analyzing the properties of MDCKII-Flp cells over-expressing dog NPC1L1 (dNPC1L1/MDCKII-Flp cells) in an inducible manner.
To further characterize the [^3H] cholesterol influx process into MDCK cells, the potency of EZE-like compound PS for inhibiting [^3H] cholesterol uptake was determined. […]

MDCKII-Flp cells = experiment: [3H]cholesterol flux into MDCKII-Flp cells; format: cell-based, dog; conditions: 10 μM PS, 5.5% βmCD pre-treatment
Experimental: as §1
To validate MDCKII cells as an appropriate surrogate system for monitoring NPC1L1-dependent processes, we evaluated their ability to perform EZE-sensitive cholesterol flux using a similar protocol to that recently reported. This assay makes use of the ability of βmCD to deplete membrane-bound cholesterol. Subsequent exposure of cells to [^3H] cholesterol provides a time-dependent flux of this substrate into the cells. […]

Sequence of dog NPC1L1 (A0A8I3RZG1 entry or part of it): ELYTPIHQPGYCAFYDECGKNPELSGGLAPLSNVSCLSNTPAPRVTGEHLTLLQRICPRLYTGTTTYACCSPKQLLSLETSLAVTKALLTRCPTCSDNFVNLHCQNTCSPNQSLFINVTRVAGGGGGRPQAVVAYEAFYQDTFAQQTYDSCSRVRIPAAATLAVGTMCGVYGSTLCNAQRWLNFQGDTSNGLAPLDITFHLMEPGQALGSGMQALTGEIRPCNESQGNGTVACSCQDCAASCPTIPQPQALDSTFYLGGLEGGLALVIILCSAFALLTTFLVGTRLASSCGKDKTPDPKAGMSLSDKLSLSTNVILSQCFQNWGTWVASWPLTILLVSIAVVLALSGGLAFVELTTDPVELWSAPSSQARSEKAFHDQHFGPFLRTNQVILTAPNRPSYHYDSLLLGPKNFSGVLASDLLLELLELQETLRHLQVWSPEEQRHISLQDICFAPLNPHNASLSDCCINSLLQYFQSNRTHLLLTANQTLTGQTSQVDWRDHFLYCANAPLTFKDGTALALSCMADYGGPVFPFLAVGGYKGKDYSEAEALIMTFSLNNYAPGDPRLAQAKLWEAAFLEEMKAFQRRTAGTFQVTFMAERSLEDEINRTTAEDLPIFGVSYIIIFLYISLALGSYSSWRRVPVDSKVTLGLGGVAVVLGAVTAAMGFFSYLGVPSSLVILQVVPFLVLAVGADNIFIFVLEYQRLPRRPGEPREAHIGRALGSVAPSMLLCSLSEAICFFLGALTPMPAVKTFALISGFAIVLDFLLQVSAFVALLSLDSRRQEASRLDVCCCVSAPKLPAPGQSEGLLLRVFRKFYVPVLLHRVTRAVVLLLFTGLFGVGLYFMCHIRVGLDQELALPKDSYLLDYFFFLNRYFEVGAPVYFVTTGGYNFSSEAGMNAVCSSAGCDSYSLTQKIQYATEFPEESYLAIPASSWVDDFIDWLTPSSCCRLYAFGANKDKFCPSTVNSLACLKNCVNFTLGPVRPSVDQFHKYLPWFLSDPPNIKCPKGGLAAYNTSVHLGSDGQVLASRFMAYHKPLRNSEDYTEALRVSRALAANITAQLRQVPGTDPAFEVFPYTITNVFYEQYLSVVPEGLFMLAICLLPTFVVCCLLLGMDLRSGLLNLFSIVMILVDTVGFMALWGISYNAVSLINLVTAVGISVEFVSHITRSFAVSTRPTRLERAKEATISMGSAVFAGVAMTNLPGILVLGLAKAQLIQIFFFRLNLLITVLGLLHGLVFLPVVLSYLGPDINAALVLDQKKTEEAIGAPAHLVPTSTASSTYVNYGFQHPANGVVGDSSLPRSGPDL

COC(=O)[C@H]1O[C@@H](Oc2ccc([C@@H]3[C@@H](CC[C@H](O)c4ccc(F)cc4)C(=O)N3c3ccc(C#CCNS(C)(=O)=O)cc3)cc2)[C@H](O)[C@@H](O)[C@@H]1O [PS, 4-[(2S,3R)-3-[(3S)-3-(4-fluorophenyl)-3-hydroxypropyl]-1-(4-{3-[(methylsulfonyl)amino]prop-1-yn-1-yl}phenyl)-4-oxoazetidin-2-yl]phenyl methyl-β-D-glucopyranosiduronate]
blockade of [3H]cholesterol influx (dog NPC1L1; 10 μM PS, 5.5% βmCD, after induction with 4 mM sodium butyrate): almost completely blocked
IC50 (dog NPC1L1; dNPC1L1/MDCKII-Flp, FIG. 7C, read-out: IC50 inhibition of [3H]cholesterol uptake): 320 ± 90 pM
blockade of [3H]cholesterol influx (MDCKII-Flp cells): marginally blocked
